We go through three molecules from ChEMBL document CHEMBL1156578, “Countercurrent separation of natural products” (J Nat Prod, 2008).

A short description of data set [1]: Octanol-water partition coefficient, log KOW in heptane-ethyl alcohol-water (4:1:4). Type of data set: physicochemical.
A short description of data set [2]: Partition coefficient, log K in n-hexane-ethyl acetate-ethyl alcohol-water (3:7:1:9). The format is physicochemical.
Data set [3] can be described thus: Partition coefficient, log K in n-hexane-ethyl acetate-ethyl alcohol-water (3:7:3:7). The format is physicochemical.
Data set [4] in a line: Partition coefficient, K in n-butyl alcohol-ethyl acetate-water by shake flask method (2:3:5).
Data set [5] in a line: Partition coefficient, log K in n-hexane-ethyl acetate-ethyl alcohol-water (5:5:3:7). Type of data set: physicochemical.
The nature of data set [6]: Partition coefficient, log K in n-hexane-ethyl acetate-ethyl alcohol-water (1:9:1:9). Type of data set: physicochemical.
The nature of data set [7]: Partition coefficient, log K in n-butyl alcohol-ethyl acetate-water by shake flask method (1:4:5). Type of data set: physicochemical.

On to `COc1ccc(/C=C/C(=O)O)cc1OC` [O,O'-DIMETHYLCAFFEIC ACID], for which the “log K” value in data set [1] is listed as 1.56.

Consider `COc1ccc([C@@H]2OC[C@H]3[C@@H]2CO[C@@H]3c2ccc(O[C@@H]3O[C@H](CO)[C@@H](O)[C@H](O)[C@H]3O)c(OC)c2)cc1OC` [PHILLYRIN], for which the “log K” value in data set [2] amounted to 0.312; in data set [3] it was 0.246; in data set [5], 0.099; in data set [6], 0.799; in data set [7], 3.87. In addition, the K in data set [4] is listed as 6.25.

Take `CCNC(=O)c1ccccc1`: the “log K” value in data set [1] is listed as 1.51.
